Data: ChEMBL document CHEMBL1201862, “PubChem BioAssay data set” (2004)
The source made the active and inactive calls.

Key:
[1] = NIH-3T3 fibroblast cytotoxicity, dose response, cytotoxicity control, cell-based, fluorescence, Alamar Blue, secondary assay (AID 2327); assay type: functional;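 further: NIH-3T3 mouse fibroblasts cultured with fluconazole at 8 µg/mL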
[2] = C. albicans growth with fluconazole, confirmation, fluorescence, retest (AID 2467); assay type: functional, cell-based
[3] = inhibitors of intracellular T. cruzi replication, confirmation, NIH3T3 host cells, beta-gal luminescence (AID 2044); assay type: functional, cell-based;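 further: intracellular parasites grown in NIH/3T3 mouse fibroblasts as host cells; luminescent beta-galactosidase reporter signal from transgenic T. cruzi replicating inside host cells; inhibitors lower the luminescence signal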
[4] = growth suppression of PTEN-null colon cells, dose response, cell-based, HCT116 PTEN knockout (AID 1047); assay type: functional;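 further: HCT116 colon tumor cells with PTEN knocked out; cells exposed to compound for 60 hours before readout; potency for loss of cell viability measured by luminescence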
[5] = cytotoxicity toward NIH3T3 fibroblasts, dose response, counter-screen, cell-based, ATP luminescence, mouse fibroblasts (AID 2010); assay type: functional;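 further: cells exposed to compound for about 90 hours before reading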
[6] = growth suppression of beta-catenin-knockout colon cells, dose response, cell-based, HCT116, human colon tumor (AID 1045); assay type: functional;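 further: HCT116 colon tumor cells with beta catenin knocked out; cells exposed to compound for 60 hours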
CAAX prenyl protease 1 = molecular target: T1, CAAX prenyl protease 1 (Saccharomyces cerevisiae S288c, UniProt P47154); assay: Ste24 protease inhibitors, dose response, biochemical, S. cerevisiae, plate reader, cherry-pick (AID 488815)
T1 sequence (P47154 whole entry): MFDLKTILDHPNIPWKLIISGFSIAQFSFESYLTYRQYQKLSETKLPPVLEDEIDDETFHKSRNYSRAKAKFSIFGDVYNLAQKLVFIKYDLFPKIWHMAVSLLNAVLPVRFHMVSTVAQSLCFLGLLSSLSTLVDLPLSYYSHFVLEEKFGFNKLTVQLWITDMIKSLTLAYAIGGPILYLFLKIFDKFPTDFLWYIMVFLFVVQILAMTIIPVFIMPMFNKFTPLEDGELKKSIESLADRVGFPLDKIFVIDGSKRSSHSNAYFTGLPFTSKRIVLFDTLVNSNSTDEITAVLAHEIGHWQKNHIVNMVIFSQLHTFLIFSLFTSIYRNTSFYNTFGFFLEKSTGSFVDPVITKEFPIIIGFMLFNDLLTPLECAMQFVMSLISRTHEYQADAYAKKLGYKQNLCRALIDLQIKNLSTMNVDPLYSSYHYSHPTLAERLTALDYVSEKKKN

[7] = molecular target: T2, DNA repair and recombination protein RAD54-like (Homo sapiens, UniProt Q92698); assay: inhibitors of human RAD54 branch migration, confirmation, biochemical, fluorescence, cherry-picked samples, dose series (AID 651657); assay type: functional
T2 sequence (Q92698 whole entry): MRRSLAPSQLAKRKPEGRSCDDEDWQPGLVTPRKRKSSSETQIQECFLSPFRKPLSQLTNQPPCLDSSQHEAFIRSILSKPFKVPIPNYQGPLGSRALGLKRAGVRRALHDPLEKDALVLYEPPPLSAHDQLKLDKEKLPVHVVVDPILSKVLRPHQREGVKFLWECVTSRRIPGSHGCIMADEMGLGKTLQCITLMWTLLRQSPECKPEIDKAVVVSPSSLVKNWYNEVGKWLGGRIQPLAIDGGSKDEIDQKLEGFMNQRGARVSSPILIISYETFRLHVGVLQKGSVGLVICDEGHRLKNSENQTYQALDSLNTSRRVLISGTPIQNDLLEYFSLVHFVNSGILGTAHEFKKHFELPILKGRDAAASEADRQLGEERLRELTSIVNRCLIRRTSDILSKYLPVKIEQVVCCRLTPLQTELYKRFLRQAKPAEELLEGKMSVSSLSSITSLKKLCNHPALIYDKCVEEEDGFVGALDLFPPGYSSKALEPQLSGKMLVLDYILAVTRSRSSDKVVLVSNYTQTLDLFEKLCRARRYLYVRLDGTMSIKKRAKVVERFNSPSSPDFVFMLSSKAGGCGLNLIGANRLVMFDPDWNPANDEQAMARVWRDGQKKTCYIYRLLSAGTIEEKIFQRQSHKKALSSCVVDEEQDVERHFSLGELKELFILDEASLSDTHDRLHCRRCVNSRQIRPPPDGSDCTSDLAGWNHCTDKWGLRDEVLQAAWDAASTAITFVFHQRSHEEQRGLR

Exodeoxyribonuclease V = molecular target: T3, Exodeoxyribonuclease V (Escherichia coli (strain K12), UniProt P04993+P07648+P08394); assay: E. coli RecBCD inhibitors, dose response, counter-screen for AddAB inhibitor project, absorbance, V66 E. coli, mutant T4 phage (AID 492957); assay type: functional, cell-based, Escherichia coli str. K-12 substr. MG1655
T3 sequence (P04993 whole entry): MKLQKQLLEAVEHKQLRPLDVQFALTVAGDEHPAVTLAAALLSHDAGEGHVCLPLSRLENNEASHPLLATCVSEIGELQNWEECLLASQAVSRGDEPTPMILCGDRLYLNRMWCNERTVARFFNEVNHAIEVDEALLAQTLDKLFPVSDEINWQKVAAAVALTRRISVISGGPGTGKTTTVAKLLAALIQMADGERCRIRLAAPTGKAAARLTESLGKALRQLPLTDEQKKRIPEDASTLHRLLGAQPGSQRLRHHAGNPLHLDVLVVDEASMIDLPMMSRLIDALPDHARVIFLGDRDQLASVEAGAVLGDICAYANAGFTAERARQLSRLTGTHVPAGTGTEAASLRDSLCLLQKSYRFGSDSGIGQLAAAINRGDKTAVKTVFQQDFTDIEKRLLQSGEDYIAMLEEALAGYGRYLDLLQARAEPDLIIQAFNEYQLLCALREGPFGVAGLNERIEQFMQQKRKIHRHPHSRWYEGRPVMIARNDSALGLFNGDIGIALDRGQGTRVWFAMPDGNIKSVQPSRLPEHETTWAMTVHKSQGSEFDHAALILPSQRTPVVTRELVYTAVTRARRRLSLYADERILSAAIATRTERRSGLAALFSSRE
T3 sequence (P07648 whole entry): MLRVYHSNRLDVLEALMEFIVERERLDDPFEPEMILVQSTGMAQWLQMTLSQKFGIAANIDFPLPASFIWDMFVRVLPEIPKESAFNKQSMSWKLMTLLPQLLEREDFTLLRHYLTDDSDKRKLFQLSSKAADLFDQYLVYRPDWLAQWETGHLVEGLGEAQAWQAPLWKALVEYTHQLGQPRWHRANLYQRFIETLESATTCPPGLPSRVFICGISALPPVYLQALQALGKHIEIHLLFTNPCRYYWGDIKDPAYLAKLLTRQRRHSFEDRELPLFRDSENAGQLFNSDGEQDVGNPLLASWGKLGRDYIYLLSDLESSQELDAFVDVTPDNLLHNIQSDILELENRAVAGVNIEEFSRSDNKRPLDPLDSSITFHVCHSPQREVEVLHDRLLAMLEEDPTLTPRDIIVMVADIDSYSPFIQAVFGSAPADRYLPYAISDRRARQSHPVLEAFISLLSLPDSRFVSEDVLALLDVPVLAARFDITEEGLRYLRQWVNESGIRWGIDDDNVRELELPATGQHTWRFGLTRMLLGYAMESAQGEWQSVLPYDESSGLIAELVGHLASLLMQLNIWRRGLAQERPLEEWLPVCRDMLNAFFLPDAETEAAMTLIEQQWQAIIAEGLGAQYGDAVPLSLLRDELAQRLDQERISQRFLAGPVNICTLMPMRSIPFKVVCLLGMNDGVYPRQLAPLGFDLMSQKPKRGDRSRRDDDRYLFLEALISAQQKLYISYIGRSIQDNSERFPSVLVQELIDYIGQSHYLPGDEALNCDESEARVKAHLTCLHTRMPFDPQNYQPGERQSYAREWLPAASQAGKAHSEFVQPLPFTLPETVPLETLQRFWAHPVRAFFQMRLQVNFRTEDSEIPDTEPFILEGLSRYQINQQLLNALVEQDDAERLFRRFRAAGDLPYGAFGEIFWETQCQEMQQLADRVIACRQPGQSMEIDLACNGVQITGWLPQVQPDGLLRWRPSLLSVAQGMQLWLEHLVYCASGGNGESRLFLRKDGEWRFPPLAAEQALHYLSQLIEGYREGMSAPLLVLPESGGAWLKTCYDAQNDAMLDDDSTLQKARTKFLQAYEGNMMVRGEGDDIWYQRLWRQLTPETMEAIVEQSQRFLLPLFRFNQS
T3 sequence (P08394 whole entry): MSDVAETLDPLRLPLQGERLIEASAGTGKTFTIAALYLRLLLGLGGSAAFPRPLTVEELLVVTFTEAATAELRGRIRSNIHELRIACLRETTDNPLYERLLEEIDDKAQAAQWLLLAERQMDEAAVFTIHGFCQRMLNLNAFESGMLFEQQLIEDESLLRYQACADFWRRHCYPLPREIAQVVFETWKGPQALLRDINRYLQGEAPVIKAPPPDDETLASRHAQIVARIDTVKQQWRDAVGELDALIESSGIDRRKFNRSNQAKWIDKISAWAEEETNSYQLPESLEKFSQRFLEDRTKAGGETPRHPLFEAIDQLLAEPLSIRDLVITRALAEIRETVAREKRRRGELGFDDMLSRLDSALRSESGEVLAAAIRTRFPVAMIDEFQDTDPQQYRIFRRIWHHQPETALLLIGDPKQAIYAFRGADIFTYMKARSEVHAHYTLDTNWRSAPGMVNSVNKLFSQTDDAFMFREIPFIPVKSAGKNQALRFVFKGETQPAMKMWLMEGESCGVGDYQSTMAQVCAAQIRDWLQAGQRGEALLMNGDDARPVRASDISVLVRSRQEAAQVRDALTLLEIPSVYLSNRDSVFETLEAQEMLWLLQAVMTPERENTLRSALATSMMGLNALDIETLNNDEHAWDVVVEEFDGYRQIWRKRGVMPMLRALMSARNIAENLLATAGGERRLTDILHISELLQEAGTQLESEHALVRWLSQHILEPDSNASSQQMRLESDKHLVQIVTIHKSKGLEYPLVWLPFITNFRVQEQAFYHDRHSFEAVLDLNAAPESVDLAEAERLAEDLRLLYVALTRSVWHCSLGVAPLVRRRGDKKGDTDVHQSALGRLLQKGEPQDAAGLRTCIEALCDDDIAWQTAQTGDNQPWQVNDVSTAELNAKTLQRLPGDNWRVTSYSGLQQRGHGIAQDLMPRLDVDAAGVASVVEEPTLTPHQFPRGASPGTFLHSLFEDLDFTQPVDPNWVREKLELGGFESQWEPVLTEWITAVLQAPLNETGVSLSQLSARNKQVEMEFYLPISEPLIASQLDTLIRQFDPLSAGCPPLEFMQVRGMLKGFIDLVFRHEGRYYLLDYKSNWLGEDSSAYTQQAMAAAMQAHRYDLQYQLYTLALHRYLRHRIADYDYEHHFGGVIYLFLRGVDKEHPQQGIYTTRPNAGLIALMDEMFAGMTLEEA

[8] = Counterscreen for AddAB inhibitors: absorbance-based bacterial cell-based high throughput dose response assay for inhibitors of bacterial viability. [Related pubchem assays (depositor defined):AID435030, AID449728, AID449731, AID488942, AID488955, AID488956]; assay type: functional

| Structure (SMILES) | EC50 [1] | EC50 [2] | EC50 [3] | EC50 [4] | EC50 [5] | EC50 [6] | AC50 (CAAX prenyl protease 1) | AC50 [7] | IC50 (Exodeoxyribonuclease V) | IC50 [8] |
| --- | --- | --- | --- | --- | --- | --- | --- | --- | --- | --- |
| CCc1nc(Nc2ccncc2)c2oc3ccccc3c2n1 | > 160 µM (inactive) | 2.48 µM (active) | 0.6 µM (active) | 6.58 µM (active) | > 60 µM (not active) | 6.45 µM (active) | 5.23 µM (active) | 15.5 µM (active) | – | – |
| COc1ccccc1/C=C1\SC(=S)N(CCC(=O)NNC(=O)c2ccccc2O)C1=O | – | – | – | – | – | – | – | – | > 119 µM (inactive) | > 119 µM (inactive) |
